The source of these data is EP0530994A1, “Quinazoline derivatives as inhibitors of HIV reverse transcriptase” (MERCK & CO. INC., priority 1991, dated 1993).

The target in the experiment is T1, recombinant HIV reverse transcriptase (HIV RTR) (Human immunodeficiency virus type 1 group M subtype B, UniProt P03366).
T1 construct: recombinant HIV reverse transcriptase (HIV RTR)
In words: Reverse transcriptase assay (incorporation of tritiated deoxyguanosine monophosphate into acid-precipitable cDNA). The format is biochemical. The following applies: [³H] dGTP and poly r(C)·oligo d(G)12-18 each at about Km; 37°C for 45 minutes; read-out: IC₅₀ value. The protocol:
The assay measures the incorporation of tritiated deoxyguanosine monophosphate by recombinant HIV reverse transcriptase (HIV RTR) (or other RT) into acid-precipitable cDNA at the Km values of dGTP and poly r(C)·oligo d(G)₁₂₋₁₈.
Thirty µL of a reaction mixture containing equal volumes of: 500 mM Tris·HCl (pH 8.2), 300 mM MgCl₂, 1200 mM KCl, 10 mM DTT, 400 µg/mL poly r(c)·oligo d(G) [prepared by dissolving 1.5 mg (25 U) poly r(C)·oligo d(G) in 1.5 ml sterile distilled H₂O and diluting to 400 µg/ml], 0.1 µCi/µl [³H] dGTP, 160 µM dGTP, was added to 10 µl sterile distilled H₂O, 2.5 µl of potential inhibitor and 10 µL of 5 nM purified HIV RTR in tubes. The mixture was incubated at 37°C for 45 minutes.
After incubation is complete, the tubes were cooled in ice for 5 minutes. Ice-cold 13% TCA containing 10 mM NaPPi (200 µl) is added and the mixture incubated on ice for 30 minutes. The precipitated cDNA is removed by filtration using presoaked glass filters [TCA, NaPPi]. […]
The filter discs are then counted in a scintillation counter.
Under these conditions [dGTP] and poly r(C)·oligo d(G)₁₂₋₁₈ each are approximately equal to the appropriate Km value. […] Calculated IC₅₀ values for the tested compounds of this invention vary from about 12 nM to more than 300 µM, with the most preferred compounds having values of between about 30 nM and about 60 µM. […]

On to `C#CC1(c2ccccc2)c2cc(Cl)ccc2NC(=O)N1C` (single isomer, unassigned; (+)) [(+) optical isomer of compound 4, 6-Chloro-3,4-dihydro-3-methyl-4-phenyl-4-ethynyl-2(1H)-quinazolinone], for which the IC50 is about 0.06 nM.
